Read-outs that look alike come from different tables or passages of the source.
Columns and labels:
d-IBS = test: IBS-QOL questionnaire in d-IBS patients, rifaximin 550 mg BID vs placebo; type: in vivo, human; conditions: Week 4
Method: Both groups received placebo for an additional 14 days after the initial 2-week treatment. Quality of life was assessed with the 34-item IBS-QOL questionnaire at baseline and 4 weeks after initiating treatment. Each item was scored on a 5-point scale (1=not at all; 2=slightly; 3=moderately; 4=quite a bit; and 5=extremely or a great deal). Results for composite and subscale scores were converted to a scale ranging from 0 to 100, with higher scores indicating better QOL.
Following a 2-week initial treatment period, both groups of patients received placebo for an additional 14 days. Quality of life was assessed via the 34-item IBS-QOL questionnaire at baseline and 4 weeks after initiating treatment. Each item was scored on a 5-point scale (1=not at all; 2=slightly; 3=moderately; 4=quite a bit; 5=extremely or a great deal); results for composite and subscale scores were converted to a scale ranging from 0 to 100, with higher scores indicating better QOL.

P-glycoprotein = target: T1, P-glycoprotein (Homo sapiens, UniProt P08183); test: Bidirectional permeability and efflux ratio of rifaximin in Caco-2 cells with P-glycoprotein inhibitors; type: in vitro ADME; conditions: for Decrease of rifaximin ER in presence of GF120918 (0.5 μM) and verapamil (60 μM): rifaximin 5 μM
T1 construct: Caco-2 cells, a human epithelial colorectal adenocarcinoma cell line; endogenous in cells; host or cells: Caco-2
Text: The ER is the ratio of efflux permeability (basolateral to apical, B-A) to absorptive permeability (apical to basolateral, A-B), and values >1 are indicative of greater efflux than absorption.

[1] = Crossover drug interaction study: oral cyclosporine 600 mg on pharmacokinetics of single-dose rifaximin 550 mg; type: in vivo, human
Method: Eligible subjects were healthy men and women 18 to 45 years of age. […] The 2 dosing periods were separated by 7 days. […] Subjects underwent a supervised fast overnight (for >8 hours) before dosing and for 4 hours after dosing, though water was permitted ad libitum. Subjects remained at the clinical research unit from Day 0 through the morning of Day 3, and from Day 7 through Day 10. A follow-up phone contact was made 3 (+1) days after discharge, which concluded their participation in the study. Study duration was up to 35 days, including a 21-day screening window, dosing on Day 1, a 7-day washout period, dosing on Day 8, discharge from the clinic on Day 10, and a 3 (+1) day follow-up period after discharge.

cytochrome P450 1A2 = target: T2, cytochrome P450 1A2 (Homo sapiens, UniProt P05177); test: In vitro cytochrome P450 inhibition; type: biochemical; conditions: 2 to 200 ng/mL
T2 sequence (P05177 1-516): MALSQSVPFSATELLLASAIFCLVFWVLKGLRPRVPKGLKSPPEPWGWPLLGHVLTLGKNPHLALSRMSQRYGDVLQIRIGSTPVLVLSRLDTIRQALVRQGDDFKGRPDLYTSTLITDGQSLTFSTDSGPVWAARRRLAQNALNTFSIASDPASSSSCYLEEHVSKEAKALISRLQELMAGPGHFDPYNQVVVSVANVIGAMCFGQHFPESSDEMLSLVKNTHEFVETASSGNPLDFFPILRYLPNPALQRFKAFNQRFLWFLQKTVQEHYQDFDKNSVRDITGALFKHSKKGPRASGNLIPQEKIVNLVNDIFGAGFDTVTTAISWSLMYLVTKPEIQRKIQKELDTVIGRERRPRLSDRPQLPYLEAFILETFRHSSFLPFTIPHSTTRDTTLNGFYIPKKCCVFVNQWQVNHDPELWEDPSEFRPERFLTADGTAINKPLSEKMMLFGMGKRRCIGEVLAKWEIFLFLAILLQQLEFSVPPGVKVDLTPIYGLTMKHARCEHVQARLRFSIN

cytochrome P450 2C19 = cytochrome P450 2C19 (Homo sapiens, UniProt P33261); test: In vitro cytochrome P450 inhibition; type: biochemical; conditions: 2 to 200 ng/mL
cytochrome P450 2D6 = cytochrome P450 2D6 (Homo sapiens, UniProt P10635); test: In vitro cytochrome P450 inhibition; type: biochemical; conditions: 2 to 200 ng/mL
CYP3A4 = CYP3A4 induction study
IBS-D = test: Adverse reactions in three phase 3 placebo-controlled IBS-D studies, rifaximin 550 mg TID; type: in vivo, human
Text: In two studies, 624 patients received only one 14-day treatment.
(These include adverse reactions that may be attributable to the underlying disease.)
The following includes adverse reactions regardless of causal relationship to drug exposure. Gastrointestinal Disorders: Abdominal distension, abdominal tenderness, constipation, diarrhea, dyspepsia, flatulence, vomiting

IBS = conditions: cited from earlier work
[2] = rifaximin 1100 mg/d 14 d (n = 191)
[3] = both sexes, human, plasma, oral
[4] = both sexes, human, plasma, oral, 550 mg
[5] = 1650 mg/day, N = 952, three phase 3 placebo-controlled studies
[6] = Pimentel, et al., responders/retreated
[7] = Yang, et al, responders/retreated

T1 sequence (P08183 whole entry): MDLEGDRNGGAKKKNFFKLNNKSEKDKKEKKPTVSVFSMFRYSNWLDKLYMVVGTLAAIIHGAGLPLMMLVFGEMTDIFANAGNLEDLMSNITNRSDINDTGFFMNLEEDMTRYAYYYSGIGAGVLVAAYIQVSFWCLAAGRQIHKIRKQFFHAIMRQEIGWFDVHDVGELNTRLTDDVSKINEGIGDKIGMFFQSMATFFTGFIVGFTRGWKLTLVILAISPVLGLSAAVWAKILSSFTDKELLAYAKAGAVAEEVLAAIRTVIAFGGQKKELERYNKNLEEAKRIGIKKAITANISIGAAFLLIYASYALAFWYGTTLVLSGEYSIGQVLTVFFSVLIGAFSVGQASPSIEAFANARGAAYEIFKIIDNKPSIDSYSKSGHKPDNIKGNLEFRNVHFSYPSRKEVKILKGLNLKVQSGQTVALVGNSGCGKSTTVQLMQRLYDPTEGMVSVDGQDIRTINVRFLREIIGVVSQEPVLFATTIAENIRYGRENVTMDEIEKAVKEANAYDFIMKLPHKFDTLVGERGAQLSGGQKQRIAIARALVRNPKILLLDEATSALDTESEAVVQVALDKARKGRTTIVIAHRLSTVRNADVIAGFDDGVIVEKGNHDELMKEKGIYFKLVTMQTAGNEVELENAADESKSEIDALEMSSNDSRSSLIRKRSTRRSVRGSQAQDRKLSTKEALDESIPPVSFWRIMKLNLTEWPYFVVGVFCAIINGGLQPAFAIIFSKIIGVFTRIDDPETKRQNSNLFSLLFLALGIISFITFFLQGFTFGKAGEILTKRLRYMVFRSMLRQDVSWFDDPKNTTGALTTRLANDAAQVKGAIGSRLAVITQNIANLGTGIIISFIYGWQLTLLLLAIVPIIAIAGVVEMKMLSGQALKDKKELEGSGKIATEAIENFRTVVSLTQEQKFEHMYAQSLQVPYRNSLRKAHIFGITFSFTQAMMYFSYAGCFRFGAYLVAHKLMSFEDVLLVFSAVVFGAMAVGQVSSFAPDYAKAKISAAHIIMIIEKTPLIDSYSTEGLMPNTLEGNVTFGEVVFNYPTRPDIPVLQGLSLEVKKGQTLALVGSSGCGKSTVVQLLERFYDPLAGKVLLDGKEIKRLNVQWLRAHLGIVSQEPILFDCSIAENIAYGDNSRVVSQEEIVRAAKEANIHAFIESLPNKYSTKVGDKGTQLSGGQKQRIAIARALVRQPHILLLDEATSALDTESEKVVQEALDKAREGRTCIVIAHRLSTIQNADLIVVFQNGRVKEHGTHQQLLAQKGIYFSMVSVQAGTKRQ
cytochrome P450 2D6, sequence (P10635 whole entry): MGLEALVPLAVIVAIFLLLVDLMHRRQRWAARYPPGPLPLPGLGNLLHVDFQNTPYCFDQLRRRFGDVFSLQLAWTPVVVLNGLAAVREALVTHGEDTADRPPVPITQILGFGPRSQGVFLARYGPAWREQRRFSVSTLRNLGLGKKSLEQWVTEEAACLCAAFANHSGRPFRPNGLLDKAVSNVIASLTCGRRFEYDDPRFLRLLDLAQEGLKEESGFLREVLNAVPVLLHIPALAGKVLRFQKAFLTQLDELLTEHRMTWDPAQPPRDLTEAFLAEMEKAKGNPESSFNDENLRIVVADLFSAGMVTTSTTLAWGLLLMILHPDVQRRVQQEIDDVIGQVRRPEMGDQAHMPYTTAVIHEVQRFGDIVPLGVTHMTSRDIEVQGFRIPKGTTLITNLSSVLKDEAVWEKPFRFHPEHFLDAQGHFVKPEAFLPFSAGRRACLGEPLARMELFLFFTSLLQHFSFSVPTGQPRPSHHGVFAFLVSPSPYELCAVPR
cytochrome P450 2C19, sequence (P33261 whole entry): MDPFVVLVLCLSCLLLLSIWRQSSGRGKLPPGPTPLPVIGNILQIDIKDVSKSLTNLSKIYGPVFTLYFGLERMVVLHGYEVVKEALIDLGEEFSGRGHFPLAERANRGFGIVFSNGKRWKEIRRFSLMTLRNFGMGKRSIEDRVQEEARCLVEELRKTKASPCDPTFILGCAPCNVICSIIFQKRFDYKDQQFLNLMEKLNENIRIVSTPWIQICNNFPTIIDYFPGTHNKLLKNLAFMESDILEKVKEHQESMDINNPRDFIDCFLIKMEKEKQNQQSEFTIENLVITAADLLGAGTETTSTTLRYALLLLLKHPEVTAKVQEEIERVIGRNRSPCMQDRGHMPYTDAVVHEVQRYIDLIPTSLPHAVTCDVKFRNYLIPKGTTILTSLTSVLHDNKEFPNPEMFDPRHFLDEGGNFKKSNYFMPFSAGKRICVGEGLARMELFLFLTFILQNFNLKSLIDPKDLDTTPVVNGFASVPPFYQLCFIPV

CO[C@H]1/C=C/O[C@@]2(C)Oc3c(C)c(O)c4c(O)c(c5c(nc6cc(C)ccn65)c4c3C2=O)NC(=O)/C(C)=C\C=C\[C@H](C)[C@H](O)[C@@H](C)[C@@H](O)[C@@H](C)[C@H](OC(C)=O)[C@@H]1C [Rifaximin, (2S,16Z,18E,20S,21S,22R,23R,24R,25S,26S,27S,28E)-5,6,21,23,25 Pentahydroxy-27-methoxy-2,4,11,16,20,22,24,26-octamethyl-2,7-(epoxypentadeca-(1,11,13)trienimino) benzofuro (4,5-e) pyrido(1,2-a) benzimidazole-1,15(2H)-dione,25-acetate]
Improvement with rifaximin over placebo, IBS-QOL Body image (d-IBS; 1100 mg/d): 37.4% | Improvement with rifaximin over placebo, IBS-QOL Dysphoria (d-IBS; 1100 mg/d): 25.3% | Improvement with rifaximin over placebo, IBS-QOL Food avoidance (d-IBS; 1100 mg/d): 22.1% | Improvement with rifaximin over placebo, IBS-QOL Health worry (d-IBS; 1100 mg/d): 30.6% | Improvement with rifaximin over placebo, IBS-QOL Interference with activity (d-IBS; 1100 mg/d): 22.2% | Improvement with rifaximin over placebo, IBS-QOL Overall score (d-IBS; 1100 mg/d): 28.7% | Improvement with rifaximin over placebo, IBS-QOL Relationship (d-IBS; 1100 mg/d): 39.5% | Improvement with rifaximin over placebo, IBS-QOL Sexual (d-IBS; 1100 mg/d): 24.9% | Improvement with rifaximin over placebo, IBS-QOL Social reaction (d-IBS; 1100 mg/d): 31.6% | Mean change from baseline in IBS-QOL, Body image (d-IBS; [2]): 20.1 | Mean change from baseline in IBS-QOL, Dysphoria (d-IBS; [2]): 24.8 | Mean change from baseline in IBS-QOL, Food avoidance (d-IBS; [2]): 25.0 | Mean change from baseline in IBS-QOL, Health worry (d-IBS; [2]): 16.0 | Mean change from baseline in IBS-QOL, Interference with activity (d-IBS; [2]): 22.2 | Mean change from baseline in IBS-QOL, Relationship (d-IBS; [2]): 14.9 | Mean change from baseline in IBS-QOL, Sexual (d-IBS; [2]): 13.6 | Mean change from baseline in IBS-QOL, Social reaction (d-IBS; [2]): 17.3 | Mean change from baseline in IBS-QOL, Overall score (d-IBS; rifaximin 1100 mg/d 14 d (n = 191), 0-100 scale): 20.4 | Maximum inhibition of rifaximin efflux permeability due to P-glycoprotein inhibition by verapamil (P-glycoprotein; Caco-2 cells): 12 fold | P-glycoprotein substrate status (P-glycoprotein; Caco-2 cells and membrane vesicles): substrate for P-glycoprotein | Papp A→B (P-glycoprotein; human, Caco-2 monolayers, 0.5, 5, and 50 μM, read-out: Net permeability in the absorptive direction): ~1 ×10⁻⁶ cm/s | Decrease of rifaximin ER in presence of GF120918 (0.5 μM) and verapamil (60 μM) (P-glycoprotein; Round 1): 8- to 12 fold | Decrease of rifaximin ER in presence of GF120918 (0.5 μM) and verapamil (60 μM) (P-glycoprotein; Round 2): 3- to 6 fold | Tmax [1, 3]: 2 h | half-life [1, 3]: 6.61 h | AUC(0-inf) [1, 4]: 2.53 ng·h/mL | Cmax [1, 4]: 0.48 ng/mL | Tmax [1, 4]: 1 h | half-life [1, 4]: 2.86 h | Increase in rifaximin mean AUC on co-administration of cyclosporine ([1]; healthy subjects): 124 fold | Increase in rifaximin mean Cmax on co-administration of cyclosporine ([1]; healthy subjects): 83 fold | Inhibition of cytochrome P450 1A2 (cytochrome P450 1A2): does not inhibit | Inhibition of cytochrome P450 2C19 (cytochrome P450 2C19): does not inhibit | Inhibition of cytochrome P450 2D6 (cytochrome P450 2D6): does not inhibit | CYP3A4 induction (CYP3A4): induces CYP3A4 | Most common adverse reactions in IBS-D (≥2%) (IBS-D; 550 mg TID): nausea and abdominal pain | Adverse reaction Abdominal Pain: % of Patients (IBS-D; [5]): 2% | Adverse reaction Abdominal Pain: Number of Patients (IBS-D; [5]): 18 | Adverse reaction Nausea: % of Patients (IBS-D; [5]): 2% | Adverse reaction Nausea: Number of Patients (IBS-D; [5]): 22 | Initial treatment response (IBS; Jolley (~1 yr), IBS-D patients, 1200 mg/day for 10 days): 56% (25/45) | Re-treatment response (at least 1) (IBS; Jolley, IBS-D patients, 2400 mg/day for 10 days): (at least 1): 54% (13/24) | Complete (>90%) relief (IBS; Jolley, IBS-D patients): 11% (5/45) | Complete (>90%) relief upon re-treatment (IBS; Jolley, IBS-D patients): 13% (3/24) | Initial treatment response (IBS; Pimentel, et al. (>6 yr), 169 Non-C IBS patients (Rome III), 400-550 mg TID for 14 days): 75% (111/148) | Re-treatment response (at least 1) (IBS; Pimentel, et al., 1 to 6 re-treatments): (at least 1): >75% | Duration of benefit (IBS; Pimentel, et al.): ~4 m | Re-treatment response, First (IBS; [6]): 54/65 | Re-treatment response, Second (IBS; [6]): 38/40 | Re-treatment response, Third (IBS; [6]): Third: 17/18 | Initial treatment response (IBS; Weinstock (>6 yr), 99 Non-C IBS patients (Rome II), 1200-1650 mg/day for 10 days): 75% (74/99) | Patients who did not require re-treatment (IBS; Weinstock): 27% did not require | Patients who maintained response for mean 1.6 y (IBS; Weinstock): 41% maintained response | Patients with only 1-2 retreatment in 2 y (IBS; Weinstock): 51% only 1-2 retreatment | Initial treatment response (IBS; Yang, et al (1.25 yr), 84 IBS patients (Rome I), 1200 mg/day for 10 days): 69% (58/84) | Re-treatment response (at least 1) (IBS; Yang, et al, 1200 mg/day for 10 days): (at least 1): 100% | Re-treatment response, First (IBS; [7]): 16/16 | Re-treatment response, Second (IBS; [7]): 4/4

Source: patent US10610522B2, “Methods for retreating irritable bowel syndrome (IBS)” (Salix Pharmaceuticals, Inc., priority 2014, dated 2020)
